Assay results as given in patent US20130224110A1, “USE OF ADENOSINE RECEPTOR SIGNALING TO MODULATE PERMEABILITY OF BLOOD-BRAIN BARRIER” (CORNELL UNIVERSITY, priority 2010, published 2013).

Columns and labels:
[1] = tested on: CD4+ lymphocytes in the brain and spinal cord; assay: CD4+ lymphocyte infiltration of brain and spinal cord after EAE induction (immunohistochemistry); format: in vivo; conditions: wild type mice, day 15 post-EAE induction, vs DMSO
Procedure: (§1) Anesthetized mice were perfused with PBS, and brains, spleens, and spinal cords were isolated and snap frozen in Tissue Tek-OCT medium. Five μm sections (brains in a sagittal orientation) were affixed to Supefrost/Plus slides (Fisher), fixed in acetone, and stored at −80° C. For immunostaining, slides were thawed and treated with 0.03% H2O2 in PBS to block endogenous peroxidase, blocked with Casein (Vector) in normal goat serum (Zymed), and then incubated with anti-CD45 (YW62.3), anti-CD4 (RM4-5), or anti-ICAM-1 (3E2). Slides were incubated with biotinylated goat anti-rat Ig (Jackson ImmunoResearch) and streptavidin-HRP (Zymed) and developed with an AEC (Red) substrate kit (Zymed) and a hematoxylin counterstain. […]
(§2) As CD73 catalyzes the breakdown of AMP to adenosine and ARs are expressed in the CNS (Tsutsui et al., “A1 Adenosine Receptor Upregulation and Activation Attenuates Neuroinflammation and Demyelination in a Model of Multiple Sclerosis,” J. Neurosci. 24:1521-1529 (2004)); Rosi et al., The Influence of Brain Inflammation Upon Neuronal Adenosine A2B Receptors,” J. Neurochem. 86:220-227 (2003), which are hereby incorporated by reference in their entirety), it was next determined if AR signaling is important during EAE progression. […] Since CD73 is highly expressed on the choroid plexus (FIG. 6C), it was next determined if ARs are also expressed on the choroid plexus. […]

[2] = tested on: ICAM-1; assay: ICAM-1 expression on the choroid plexus after EAE induction; format: in vivo; conditions: wild type mice after EAE induction, vs DMSO
Procedure: as §1, §2

[3] = cited from earlier work
[4] = tested on: Bend.3 cells; assay: Transendothelial cell electrical resistance (TEER) assay; format: cell-based; conditions: mouse BEC monolayers, 1 μM, vs vehicle or media alone
Procedure: Bend.3 cells were grown in ATCC-formulated DMEM supplemented with 10% FBS on 24-well transwell inserts, 8 μm pore size (BD Falcon, Bedford, Mass.) until a monolayer was established. TEER was assessed using a Voltohmeter (EVOMX, World Precision Instruments, Sarasota, Fla.). Background resistance from un-seeded transwells was subtracted from recorded values to determine absolute TEER values. Change in absolute TEER from T0 for each individual transwell was expressed as percentage change and then averaged for each treatment group.

[5] = tested on: hCMEC/D3 cells; assay: Jurkat cell migration across hCMEC/D3 transwell in vitro BBB; format: cell-based, human; conditions: 24 hours
Procedure: hCMEC/D3 cells were seeded onto Transwell and allowed to grow to confluencey. 2×10^6 Jurkat cells were added to the upper chamber with or without NECA (general adenosine receptor [AR] agonist), CCPA (A1 AR agonist), CGS 21860 (A2A AR agonist), or DMSO vehicle. After 24 hours, migrated cells in the lower chamber were counted. Values are relative to the number of cells that migrate through non-[…]3 seeded transwells.

[6] = tested on: Bend.3 cells; assay: Tight junction molecule staining (ZO-1, Claudin-5, Occludin); format: cell-based, mouse; conditions: 1 μM, 1 h
Procedure: Bend.3 cells grown on collagen coated coverslips were incubated with DMSO vehicle, NECA (1 μM), or Lexiscan (1 μM) for 1 h. Cells were washed with PBS, fixed with 4% paraformaldehyde, and permeabilized with 0.5% Triton-X in PBS. Cells were blocked with PBS/BSA/goat serum and then stained with antibodies (Invitrogen) against either ZO-1 (1A12), Claudin-5 (34-1600), or Occludin (3F10). Following a wash step, cells were incubated with either goat anti-rabbit IgTexas Red-X or goat anti-mouse IgCy5 (Invitrogen). Cover slips were washed and mounted on slides with ProlongGold containing DAPI. Images were obtained on a Zeiss Axio Imager M1 fluorescent microscope.

[7] = tested on: Z310 cells; assay: Jurkat cell migration across Z310 choroid plexus cell transwell; format: cell-based, murine; conditions: 24 hours, n=1
Procedure: To test the hypothesis, Transwell membranes were seeded with Z310 cells and allowed to grow to confluencey. 2×10^6 Jurkat cells were added to the upper chamber with or with out NECA (n=1, general AR agonist), CCPA (n=1, A1 AR agonist), CGS 21860 (n=1, A2A AR agonist), or DMSO vehicle(n=1). After 24 hours, migrated cells in the lower chamber were counted. Values are relative to the number of cells that migrate through non-Z310 seeded transwells and the results are shown in FIG. 12.

SMILES | frequency of CD4+ lymphocytes in the brain and spinal cord [1] | ICAM-1 up regulation on the choroid plexus [2] | half-life [3] [h] | TEER [4] | lymphocyte (Jurkat) migration across the in vitro BBB [5] | ZO-1 and claudin-5 expression [6] | occludin expression [6] | lymphocyte (Jurkat) migration across the CP [7]
Nc1nc2c(cnn2CCc2ccccc2)c2nc(-c3ccco3)nn12 [SCH58261, 2-(2-Furanyl)-7-(2-phenylethyl)-7H-pyrazolo[4,3-e][1,2,4]triazolo[1,5-c]pyrimidin-5-amine] | significantly lower frequency of CD4^+ lymphocytes in the brain and spinal cord | prevented the up regulation of ICAM-1 | – | – | – | – | – | –
CCNC(=O)[C@H]1O[C@@H](n2cnc3c(N)ncnc32)[C@H](O)[C@@H]1O [NECA, 5′-N-ethylcarboxamido adenosine] | – | – | ~5 | decreases in TEER | induced some migration | discreet alterations in ZO-1 and claudin-5 | severely diminished occludin expression | induced migration
